7 compounds from US11427575B2, “Antitumor compound for activating JWA gene and degrading HER2, preparation method thereof, and application thereof” (SIMCERE PHARMACEUTICAL CO., LTD., priority 2019, dated 2022) can be followed below.

In this experiment the test system is promoter of JWA gene. Kind of experiment: Luciferase reporter gene under control of JWA gene promoter in HBE cells (high-throughput screening). The class given is cell-based, human. The conditions noted are these: 48 h. The text has this: High-throughput screening (HTS) was used to identify the human bronchial epithelial (HBE) cells stably transfected with a DNA construct with a luciferase gene under control of a 2,000 bp long promoter of JWA gene.
FIG. 1 is a sequence containing the 2000 bp promoter sequence of JWA gene that was used for a luciferase reporter gene plasmid construction.

Structures are written as SMILES.

`COc1cccc2sc(Nc3nc4c(F)ccc(F)c4s3)nc12` [JAC1011, 4,7-difluoro-n-(4-methoxybenzo-thiazole-2-group) benzoylthiazole-2-amine]: the “fluorescence intensity of reporter gene” value (0.05 μg/mL) is reported as 13255.33; the “fluorescence intensity of reporter gene” value (0.10 μg/mL) was found to be 13553.33; the “fluorescence intensity of reporter gene” value (0.21 μg/mL) is reported as 15397.33; the “fluorescence intensity of reporter gene” value (0.41 μg/mL) was 19835.00; the “fluorescence intensity of reporter gene” value (0.83 μg/mL) was determined as 25886.67; the “fluorescence intensity of reporter gene” value (1.65 μg/mL) came out at 31413.33. For the same compound, the “fluorescence intensity of reporter gene” value (3.30 μg/mL) was 39676.33.

For `COc1cccc2sc(Nc3nc4c(F)cc(F)cc4s3)nc12` [JAC1012, 4,6-difluoro-n-(4-methoxylbenzene (d)thiazole-2-group) benzene (d) thiazole-2-amine], the “fluorescence intensity of reporter gene” value reads like this: (0.05 μg/mL) 13448.67; (0.10 μg/mL) 13518.67; (0.21 μg/mL) 16205.00; (0.41 μg/mL) 19768.67; (0.83 μg/mL) 25237.33; (1.65 μg/mL) 33228.00. For the same compound, the “fluorescence intensity of reporter gene” value (3.30 μg/mL) is on record as 41139.33.

As to `COc1cccc2sc(Nc3nc4c(C(F)(F)F)cccc4s3)nc12` [JAC1013, 4-methoxy-N-(4-(trifluoromethyl)benzo (d)thiazole-2-group) benzo (d) thiazole-2-amine], the “fluorescence intensity of reporter gene” value reads like this: (0.05 μg/mL) 13315.33; (0.10 μg/mL) 12346.00; (0.21 μg/mL) 14926.00; (0.41 μg/mL) 16036.67; (0.83 μg/mL) 20014.00; (1.65 μg/mL) 26261.67. Further, the “fluorescence intensity of reporter gene” value (3.30 μg/mL) amounted to 35332.33.

`COc1ccc(OC)c2sc(Nc3nc4c(F)cccc4s3)nc12` [JAC1014, N-(4-fluorobenzoyl (d)thiazole-2-group)-4,7-dimethoxy benzozoyl (d) thiazole-2-amine]: the “fluorescence intensity of reporter gene” value worked out at 13835.33 (0.05 μg/mL); 14254.00 (0.10 μg/mL); 15262.67 (0.21 μg/mL); 18680.00 (0.41 μg/mL); 22088.00 (0.83 μg/mL); 28702.00 (1.65 μg/mL). Also, the “fluorescence intensity of reporter gene” value (3.30 μg/mL) was 37664.67.

Turning to `COc1cc(OC)c2nc(Nc3nc4c(F)cccc4s3)sc2c1` [JAC1015, N-(4-fluorobenzoyl (d)thiazole-2-group)-4,6-dimethoxy benzozoyl (d) thiazole-2-amine], the “fluorescence intensity of reporter gene” value (0.05 μg/mL) is recorded as 14335.33; the “fluorescence intensity of reporter gene” value (0.10 μg/mL) came to 15573.33; the “fluorescence intensity of reporter gene” value (0.21 μg/mL) was determined as 18260.67; the “fluorescence intensity of reporter gene” value (0.41 μg/mL) was 22168.67; the “fluorescence intensity of reporter gene” value (0.83 μg/mL) was determined as 28162.67; the “fluorescence intensity of reporter gene” value (1.65 μg/mL) came out at 30168.67. The “fluorescence intensity of reporter gene” value (3.30 μg/mL) is recorded as 37663.33.

In the case of `COc1ccc(OC)c2sc(Nc3nc4c(C(F)(F)F)cccc4s3)nc12` [JAC1016, 4,7-dimethoxyn-(4-(trifluoromethyl)benzene (d)thiazole-2-group) benzene (d) thiazole-2-amine], the “fluorescence intensity of reporter gene” value reads like this: (0.05 μg/mL) 14360.00; (0.10 μg/mL) 16238.00; (0.21 μg/mL) 19226.00; (0.41 μg/mL) 24518.00; (0.83 μg/mL) 28746.00; (1.65 μg/mL) 32253.33. Where the note is “3.30 μg/mL”, the “fluorescence intensity of reporter gene” value was 36361.67.

As to `COc1cc(OC)c2nc(Nc3nc4c(C(F)(F)F)cccc4s3)sc2c1` [JAC1017, 4,6-dimethoxyn-(4-(trifluoromethyl)benzo (d)thiazole-2-group) benzo (d) thiazole-2-amine], the “fluorescence intensity of reporter gene” value was found to be 12910.00 (0.05 μg/mL); 13086.67 (0.10 μg/mL); 14460.00 (0.21 μg/mL); 17188.00 (0.41 μg/mL); 22680.00 (0.83 μg/mL); 28406.00 (1.65 μg/mL). Besides, under “3.30 μg/mL”, the “fluorescence intensity of reporter gene” value was 37426.00.
